From ChEMBL document CHEMBL3400013, “Synthesis and biological activity evaluation of hydrazone derivatives based on a Tröger's base skeleton” (Bioorg Med Chem, 2015)
The source made the active and inactive calls. The calls are words filed in the database; no cut-off is given here.

Tested on: Mycobacterium tuberculosis
Test: Antimicrobial activity against Mycobacterium bovis BCG up to 100 uM after 24 to 48 hrs by broth microdilution method
Assay type: functional, organism-based
Settings: variant bovis BCG

Compound | Activity
O=C(N/N=C/c1cc(Cl)ccc1O)c1ccc2c3c(ccc2c1)N1Cc2c(ccc4cc(C(=O)N/N=C/c5cc(Cl)ccc5O)ccc24)N(C3)C1 | inactive
COc1cccnc1/C=N/NC(=O)c1ccc2c3c(ccc2c1)N1Cc2c(ccc4cc(C(=O)N/N=C/c5ncccc5OC)ccc24)N(C3)C1 | inactive
COc1ccc(O)c(/C=N/NC(=O)c2ccc3c4c(ccc3c2)N2Cc3c(ccc5cc(C(=O)N/N=C/c6cc(OC)ccc6O)ccc35)N(C4)C2)c1 | inactive
O=C(N/N=C/c1cc(F)ccc1O)c1ccc2c3c(ccc2c1)N1Cc2c(ccc4cc(C(=O)N/N=C/c5cc(F)ccc5O)ccc24)N(C3)C1 | inactive
O=C(N/N=C/c1cc([N+](=O)[O-])ccc1O)c1ccc2c3c(ccc2c1)N1Cc2c(ccc4cc(C(=O)N/N=C/c5cc([N+](=O)[O-])ccc5O)ccc24)N(C3)C1 | inactive
O=C(N/N=C/c1nccc2ccccc12)c1ccc2c3c(ccc2c1)N1Cc2c(ccc4cc(C(=O)N/N=C/c5nccc6ccccc56)ccc24)N(C3)C1 | inactive
O=C(N/N=C/c1cc(O)ccc1O)c1ccc2c3c(ccc2c1)N1Cc2c(ccc4cc(C(=O)N/N=C/c5cc(O)ccc5O)ccc24)N(C3)C1 | inactive
Cc1ccc(O)c(/C=N/NC(=O)c2ccc3c4c(ccc3c2)N2Cc3c(ccc5cc(C(=O)N/N=C/c6cc(C)ccc6O)ccc35)N(C4)C2)c1 | inactive
O=C(NN=C(c1ccccn1)c1ccccn1)c1ccc2c3c(ccc2c1)N1Cc2c(ccc4cc(C(=O)NN=C(c5ccccn5)c5ccccn5)ccc24)N(C3)C1 | inactive
O=C(N/N=C/c1ccccc1O)c1ccc2c3c(ccc2c1)N1Cc2c(ccc4cc(C(=O)N/N=C/c5ccccc5O)ccc24)N(C3)C1 | inactive
COC(=O)c1ccc(O)c(/C=N/NC(=O)c2ccc3c4c(ccc3c2)N2Cc3c(ccc5cc(C(=O)N/N=C/c6cc(C(=O)OC)ccc6O)ccc35)N(C4)C2)c1 | inactive
